Measurements as given in ChEMBL document CHEMBL1201862, “PubChem BioAssay data set” (2004).
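In this assay, cells in 96-well plates receive the compound at five concentrations for 48 hours. Endpoints are linearly interpolated between the surrounding concentrations. GI50 marks 50% less growth.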 Activity calls are given as the source filed them. No stated cut-off is given here; in the data, active = GI50 up to about 1.1 µM and inactive = higher.

Tests used:
Assay in all cases: NCI anticancer screen, dose series, 48 h
K562 = tested on: K562
Malme-3M = tested on: Malme-3M
OVCAR-8 = tested on: OVCAR-8
DMS-114 = tested on: DMS-114
HCT-15 = tested on: HCT-15
NCI-H522 = tested on: NCI-H522
A549 = tested on: A549
SK-MEL-5 = tested on: SK-MEL-5
HT-29 = tested on: HT-29
SK-OV-3 = tested on: SK-OV-3
SK-MEL-28 = tested on: SK-MEL-28
TK-10 = tested on: TK-10
HOP-62 = tested on: HOP-62
HOP-18 = tested on: HOP-18
LXFL 529 = tested on: LXFL 529
SR = tested on: SR
CCRF-CEM = tested on: CCRF-CEM
786-0 = tested on: 786-0
UO-31 = tested on: UO-31
SNB-19 = tested on: SNB-19
M14 = tested on: M14
KM12 = tested on: KM12
SK-MEL-2 = tested on: SK-MEL-2
IGROV-1 = tested on: IGROV-1
SF-295 = tested on: SF-295
OVCAR-3 = tested on: OVCAR-3
OVCAR-5 = tested on: OVCAR-5
UACC-62 = tested on: UACC-62
M19-MEL = tested on: M19-MEL
NCI-H23 = tested on: NCI-H23
SW-620 = tested on: SW-620
MOLT-4 = tested on: MOLT-4
RXF 393 = tested on: RXF 393
LOX IMVI = tested on: LOX IMVI
COLO 205 = tested on: COLO 205
HCT-116 = tested on: HCT-116
CAKI-1 = tested on: CAKI-1
SF-268 = tested on: SF-268
HL-60 = tested on: HL-60
SNB-78 = tested on: SNB-78
SNB-75 = tested on: SNB-75
EKVX = tested on: EKVX
RPMI-8226 = tested on: RPMI-8226
DLD-1 = tested on: DLD-1
UACC-257 = tested on: UACC-257
SN12C = tested on: SN12C
HOP-92 = tested on: HOP-92
HCC 2998 = tested on: HCC 2998
OVCAR-4 = tested on: OVCAR-4
SF-539 = tested on: SF-539
ACHN = tested on: ACHN
NCI-H460 = tested on: NCI-H460
A498 = tested on: A498
U-251 = tested on: U-251
KM-20L2 = tested on: KM-20L2
NCI-H226 = tested on: NCI-H226
DMS-273 = tested on: DMS-273

Measured: GI50

NC(=S)N/N=C/c1cn(CCCl)c2ccccc12
8.69 µM: HCT-15
inactive: K562 8.05 µM | Malme-3M > 100 µM | OVCAR-8 57.3 µM | DMS-114 21.9 µM | NCI-H522 11.9 µM | A549 34.9 µM | SK-MEL-5 15.9 µM | HT-29 23.9 µM | SK-OV-3 > 100 µM | SK-MEL-28 63.5 µM | TK-10 90.2 µM | HOP-62 89.5 µM | HOP-18 61.9 µM | LXFL 529 39.7 µM | SR 11 µM | CCRF-CEM 20.7 µM | 786-0 43.7 µM | UO-31 16.9 µM | SNB-19 > 100 µM | M14 56.4 µM | KM12 32.7 µM | SK-MEL-2 72.1 µM | IGROV-1 > 100 µM | SF-295 13.6 µM | OVCAR-3 36.8 µM | OVCAR-5 3.81 µM | UACC-62 30.2 µM | M19-MEL 52.1 µM | NCI-H23 > 100 µM | SW-620 43.6 µM | MOLT-4 14.2 µM | RXF 393 > 100 µM | LOX IMVI 25 µM | COLO 205 46.5 µM | HCT-116 27.4 µM | CAKI-1 18.7 µM | SF-268 > 100 µM | HL-60 9.57 µM | SNB-78 > 100 µM | SNB-75 12.9 µM | EKVX 14.7 µM | RPMI-8226 14.2 µM | DLD-1 71.9 µM | UACC-257 22 µM | SN12C 89.7 µM | HOP-92 21.9 µM

CCN(CC)CC/N=C\c1c(O)c(O)c(C(C)C)c2cc(C)c(-c3c(C)cc4c(C(C)C)c(O)c(O)c(/C=N/CCN(CC)CC)c4c3O)c(O)c12
inactive: Malme-3M 4.16 µM | HCC 2998 2.11 µM | DMS-114 1.58 µM | HT-29 1.77 µM | SK-OV-3 3.46 µM | SK-MEL-28 3.17 µM | HOP-62 2.65 µM | LXFL 529 1.46 µM | UO-31 2.93 µM | SNB-19 1.65 µM | M14 1.83 µM | SK-MEL-2 2.3 µM | IGROV-1 2.74 µM | SF-295 1.58 µM | OVCAR-3 1.59 µM | UACC-62 2.55 µM | M19-MEL 3.45 µM | NCI-H23 2.95 µM | MOLT-4 1.29 µM | RXF 393 1.33 µM | COLO 205 3.54 µM | HCT-116 1.82 µM | SF-539 2.2 µM | ACHN 2.66 µM | SF-268 4 µM | NCI-H460 2.32 µM | SNB-75 5.31 µM | RPMI-8226 1.53 µM | UACC-257 5.53 µM | HOP-92 2.38 µM
active: K562 1.02 µM | NCI-H522 0.959 µM | CCRF-CEM 0.354 µM | OVCAR-4 0.959 µM | KM12 1.1 µM | SNB-78 0.716 µM

Cc1cc(=O)n(-c2ccccc2)c(=O)o1
inactive: K562 > 100 µM | Malme-3M > 100 µM | HCC 2998 > 100 µM | DMS-114 > 100 µM | NCI-H522 62.7 µM | A549 > 100 µM | SK-MEL-5 > 100 µM | HT-29 > 100 µM | SK-OV-3 > 100 µM | SK-MEL-28 > 100 µM | TK-10 > 100 µM | HOP-62 > 100 µM | HOP-18 > 100 µM | LXFL 529 > 100 µM | SR > 100 µM | A498 > 100 µM | CCRF-CEM > 100 µM | 786-0 > 100 µM | UO-31 > 100 µM | SNB-19 > 100 µM | U-251 > 100 µM | M14 > 100 µM | OVCAR-4 > 100 µM | KM12 > 100 µM | SK-MEL-2 > 100 µM | IGROV-1 > 100 µM | SF-295 49.5 µM | OVCAR-3 > 100 µM | OVCAR-5 > 100 µM | UACC-62 > 100 µM | M19-MEL > 100 µM | NCI-H23 > 100 µM | SW-620 > 100 µM | KM-20L2 > 100 µM | MOLT-4 > 100 µM | RXF 393 > 100 µM | NCI-H226 > 100 µM | LOX IMVI 32.8 µM | COLO 205 > 100 µM | HCT-116 > 100 µM | SF-539 > 100 µM | CAKI-1 > 100 µM | ACHN > 100 µM | SF-268 > 100 µM | DMS-273 > 100 µM | HL-60 > 100 µM | NCI-H460 > 100 µM | SNB-78 > 100 µM | SNB-75 > 100 µM | EKVX > 100 µM | RPMI-8226 > 100 µM | DLD-1 > 100 µM | UACC-257 > 100 µM | SN12C > 100 µM | HOP-92 > 100 µM
> 100 µM: HCT-15
